A word on the inhibition: it is the percentage by which the read-out fell short of the control.

Assay [1] addresses T1, RORγ-LBD (GST-fused ligand-binding domain of RORγ) / coactivator TRAP220/DRIP-2 (Homo sapiens, UniProt P51449).
T1 construct: purchased Invitrogen
T1 sequence (P51449 269-508 limits assumed): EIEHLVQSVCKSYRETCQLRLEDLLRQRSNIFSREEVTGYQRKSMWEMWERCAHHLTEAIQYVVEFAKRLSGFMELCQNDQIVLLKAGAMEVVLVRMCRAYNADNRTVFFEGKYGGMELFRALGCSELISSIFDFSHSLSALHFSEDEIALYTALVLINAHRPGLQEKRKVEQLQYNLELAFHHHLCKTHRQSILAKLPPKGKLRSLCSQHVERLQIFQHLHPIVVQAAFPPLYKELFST
The experiment in a line: Inhibitory effect on RORγ-coactivator binding (LanthaScreen TR-FRET RORγ Coactivator Assay). The note with it: at 33 μmol/L of the test compound; read-out: RORγ-coactivator binding inhibition rate (%). Type of assay: biochemical. Here is the method:
The inhibitory effect of the cyclic amine derivative (I) or a pharmacologically acceptable salt thereof on the binding between a ligand-binding domain of RORγ (hereinafter referred to as RORγ-LBD) and a coactivator was evaluated using Invitrogen's LanthaScreen™ TR-FRET Retinoid-Related Orphan Receptor (ROR) gamma Coactivator Assay kit utilizing time-resolved fluorescence energy transfer (TR-FRET).
A test compound was dissolved in DMSO and diluted with TR-FRET Coregulator Buffer D (Invitrogen) containing 5 mmol/L of DTT to have a final DMSO concentration of 1% before use. To each well of a 384-well black plate (Corning Inc.), 4 nmol/L of GST-fused RORγ-LBD (Invitrogen) diluted with the buffer mentioned above and the test compound were added. A well without addition of the test compound and without addition of GST-fused RORγ-LBD (background) and a well without addition of the test compound and with addition of GST-fused RORγ-LBD (control) were prepared. Next, 150 nmol/L of fluorescein-labeled TRAP220/DRIP-2 (Invitrogen) diluted with the buffer mentioned above and 32 nmol/L of terbium-labeled anti-GST antibody (Invitrogen) were added to each well. After incubating the plate at room temperature for 16 to 24 hours, the fluorescence at 495 nm and 520 nm when excited at 320 nm was measured for each well and the ratio (fluorescence value at 520 nm/fluorescence value at 495 nm) was calculated.
The fold change with addition of the test compound (ratio with addition of the test compound/ratio of the background), the fold change of the control (ratio of the control/ratio of the background), and the fold change of the background (ratio of the background/ratio of the background) were calculated, and then the inhibition rate of binding between RORγ-LBD and a coactivator (hereinafter referred to as RORγ-coactivator binding inhibition rate) (%) was calculated from Formula (1):
RORγ-coactivator binding inhibition rate (%)=(1−((Fold change with addition of the test compound)−(Fold change of the background))/((Fold change of the control)−(Fold change of the background)))×100 (1).
A general note: TR-FRET usually uses a lanthanide donor and a delayed reading to cut background.

For assay [2], the system named is IL-17 production in mouse splenocytes. The experiment in a line: Suppressive effect on IL-17 production by IL-23 stimulation in mouse splenocytes. The conditions noted are these: Splenocyte, 72 h, at 5 μmol/L of the test compound, human IL-23 10 ng/mL, cultured 3 days, read-out: IL-17 production inhibition rate (%). Type of assay: cell-based. As to the method:
Using mouse splenocytes, the suppressive effect of the cyclic amine derivative (I) or a pharmacologically acceptable salt thereof on IL-17 production by IL-23 stimulation was evaluated by a partially modified method mentioned in The Journal of Biological Chemistry, 2003, Vol. 278, No. 3, p. 1910-1914.
A single cell suspension was prepared from the spleen of C57BL/6J mice (male or female, 6 to 30 weeks old) (Charles River Laboratories Japan, Inc. or CLEA Japan, Inc.) and splenocytes were prepared using Histopaque-1083 (Sigma-Aldrich Japan). The culture medium was used by adding 10% FBS (Gibco), 50 U/mL of penicillin-50 μg/mL of streptomycin (Gibco), 50 μmol/L of 2-mercaptoethanol (Gibco), and 100 U/mL of human IL-2 (Cell Science & Technology Institute, Inc.) to RPMI1640 medium (Gibco). A test compound was dissolved in DMSO and then diluted with the culture medium to have a final concentration of DMSO of 0.1% before use. Splenocytes (3×10^5 cells/well) prepared in the culture medium were seeded in wells of a 96-well flat-bottom plate (Corning Incorporated), the test compound and 10 ng/mL of human IL-23 (R & D systems, Inc.) were added thereto, and the cells were cultured at 37° C. under 5% CO2 for 3 days. A well without addition of human IL-23 and without addition of the test compound and a well with addition of human IL-23 and without addition of the test compound were prepared. After completion of the culture, the culture supernatant was collected and the IL-17 production amount in the supernatant was determined by ELISA method (R & D systems, Inc.).
The IL-17 production inhibition rate (%) was calculated from Formula (2).
IL-17 production inhibition rate (%)=(1−((IL-17 production amount with addition of IL-23 and with addition of the test compound)−(IL-17 production amount without addition of IL-23 and without addition of the test compound))/((IL-17 production amount with addition of IL-23 and without addition of the test compound)−(IL-17 production amount without addition of IL-23 and without addition of the test compound)))×100 (2).

`CC(=O)N1CCCC[C@@H]1C(=O)Nc1cc(Cl)c2c(c1)CCN(Cc1ccc(C(F)(F)F)cc1)C2` [Example 3, (R)-1-acetyl-N-(8-chloro-2-(4-(trifluoromethyl)benzyl)-1,2,3,4-tetrahydroisoquinolin-6-yl)piperidine-2-carboxamide]: the inhibition at 33 µM in assay [1] stood at 99.5%. For the same compound, in assay [2], the inhibition at 5 µM stood at 99.7%.
On to `CC(=O)N1CCCC[C@@H]1C(=O)Nc1ccc2c(c1)CCCN2Cc1ccc(C(F)(F)F)cc1` [Example 2, (R)-1-acetyl-N-(1-(4-(trifluoromethyl)benzyl)-1,2,3,4-tetrahy-droquinolin-6-yl)piperidine-2-carboxamide], for which, in assay [1], the inhibition at 33 µM amounted to 94.3%. In addition, the inhibition at 5 µM in assay [2] came out at 98.4%.
The like results for `CC(=O)N1CCCC[C@@H]1C(=O)Nc1cc(Cl)c2c(c1)CCN2Cc1cccc(C(F)(F)F)c1` [Example 5, (R)-1-acetyl-N-(7-chloro-1-(3-(trifluoromethyl)benzyl)indolin-5-yl)piperidine-2-carboxamide] were, in that order, 87.9% and 87.5%.
For `CC(=O)N1CCCC[C@@H]1C(=O)Nc1cc(Cl)c2c(c1)CCN2CCc1ccc(C(F)(F)F)cc1` [Example 7, (R)-1-acetyl-N-(7-chloro-1-(4-(trifluoromethyl)phenethyl)indolin-5-yl)piperidine-2-carboxamide] the same measures were 96% and 98.6%.
For `CC(=O)N1CCCCC1C(=O)Nc1cc(Cl)c2c(c1)CCN2Cc1ccc(C(F)(F)F)cc1` (centres unmarked) [Example 10, 1-acetyl-N-(7-chloro-1-(4-(trifluoromethyl)benzyl)indolin-5-yl)piperidine-2-carboxamide] the same measures were 99.8% and 99.5%.
On to `CC(=O)N1CCCC[C@@H]1C(=O)Nc1cc(Cl)c2c(c1)CCN2Cc1ccc(OC(F)(F)F)cc1` [Example 8, (R)-1-acetyl-N-(7-chloro-1-(4-(trifluoromethoxy)benzyl)in-dolin-5-yl)piperidine-2-carboxamide], for which the inhibition at 33 µM in assay [1] stood at 99.4%. For the same compound, the inhibition at 5 µM in assay [2] is 100%.
The like results for `CC(=O)N1CCCC[C@@H]1C(=O)Nc1cc(Cl)c2c(c1)CCN2Cc1ccccc1C(F)(F)F` [Example 6, (R)-1-acetyl-N-(7-chloro-1-(2-(trifluoromethyl)benzyl)indolin-5-yl)piperidine-2-carboxamide] were, in that order, 85.2% and 91.6%.

For the origin of these results see patent publication US20200392107A1, “CYCLIC AMINE DERIVATIVE AND MEDICAL USE THEREOF” (Toray Industries, Inc., priority 2018, published 2020).
